The record followed here is US20110008471A1, “SYNERGISTIC ANTIPARASITIC COMPOSITIONS AND SCREENING METHODS” (TyraTech, Inc., priority 2007, published 2011).

Experiment [1] concerns the target T1, Tyramine receptor (TyrR) (Drosophila melanogaster, UniProt P22270).
T1 construct: expressed in transfected cells; host or cells: model cells in culture
T1 sequence (P22270 27-601): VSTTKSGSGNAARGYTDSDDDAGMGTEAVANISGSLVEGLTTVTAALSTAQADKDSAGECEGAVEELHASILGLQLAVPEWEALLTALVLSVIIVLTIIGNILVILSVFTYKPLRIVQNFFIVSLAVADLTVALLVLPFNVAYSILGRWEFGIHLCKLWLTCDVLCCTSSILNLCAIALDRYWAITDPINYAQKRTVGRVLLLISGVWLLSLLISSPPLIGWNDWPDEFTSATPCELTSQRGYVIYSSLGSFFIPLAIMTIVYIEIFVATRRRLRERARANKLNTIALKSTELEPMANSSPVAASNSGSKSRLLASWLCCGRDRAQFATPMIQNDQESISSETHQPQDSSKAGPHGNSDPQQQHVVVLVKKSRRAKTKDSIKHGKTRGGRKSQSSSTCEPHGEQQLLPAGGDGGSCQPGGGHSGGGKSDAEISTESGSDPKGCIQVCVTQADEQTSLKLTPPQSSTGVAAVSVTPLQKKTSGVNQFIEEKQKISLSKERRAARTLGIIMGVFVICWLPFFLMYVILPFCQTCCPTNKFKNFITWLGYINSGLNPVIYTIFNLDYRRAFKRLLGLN
Briefly: Tyramine receptor binding affinity in cells expressing TyrR. On the procedure: In some embodiments, a method of selecting a composition for use in treating a parasitic infection includes the following. A cell expressing a tyramine receptor is provided and is contacted with test compounds. The receptor binding affinity of the compounds is measured. At least one parameter selected from the following parameters is measured: intracellular cAMP level, and intracellular Ca^2+ level. A first compound for the composition is identified, which is capable of altering at least one of the parameters, and which has a high receptor binding affinity for the tyramine receptor; and a second compound for the composition is identified, which is capable of altering at least one of the parameters, and which has a low receptor binding affinity for the tyramine receptor. A composition is selected that includes the first and second compounds.
As used herein, the term “receptor binding affinity” refers to an interaction between a composition or component, e.g., compound, and a receptor binding site. The interaction between a composition or component, and the receptor binding site, can be identified as specific or non-specific. In some embodiments, the specificity of an interaction between a composition or component, and a TyrR binding site, can be determined in the following manner. A wild type fly (Drosophila melanogaster) and a mutant fly are provided, where the mutant fly lacks a TyrR. The wild type and mutant flies are exposed to a composition or component of interest. […] If the exposure negatively affects the wild type fly and the mutant fly, then the treatment with the composition or component of interest can be said to be non-specific for the TyrR.
A “high receptor binding affinity” can be a specific interaction between a composition or component, and the receptor binding site.
A “low receptor binding affinity” can be a non-specific interaction between a composition or component, and the receptor binding site. […] In some embodiments, a low receptor binding affinity is found when the effective concentration at which tyramine binding is inhibited by 50% (EC50) is greater than about 500 μM, 625 μM, 750 μM, 875 μM, 1000 μM, 1125 μM, or 1250 μM.
A receptor gene encoding the Tyramine receptor (TyrR) has been isolated from the American cockroach, fruit fly, mosquito, and other organisms. The present subject matter provides methods of utilizing the TyrR protein expressed in cells to screen for compounds useful for treating parasitic infections.
(§1) In the present Example, the genes encoding TyrR were incorporated into model cells in culture that mimic receptors in insects. The screening process uses the cultured cells in combination with [Ca^2+]i and [cAMP]i measuring assays to quantitatively determine effectiveness of test compound to treat parasitic infections. The screening process allows for identification of compounds that produce highly efficacious anti-parasitic compositions.
(§2) The assay steps are as follows. A cell expressing a tyramine receptor is contacted with a test compound and the receptor binding affinity of the test compound is measured. Cells which can be used include, for example, HEK293 cells, COS cells, Drosophila Schneider or S2 cells, SF9, SF21, T.ni cells, or the like. cAMP and/or Ca^2+ levels within the cell are also monitored and any changes from contacting the test compound with the cell are noted for each compound tested. […] A composition for use in treating a parasitic formulation can then be selected that includes a plurality of the identified compounds. In particular, the composition can comprise at least one compound identified as having a high receptor binding affinity for the tyramine receptor as well as an ability to effect change in cAMP and/or Ca^2+ levels within the cell and at least one additional compound identified as having a low receptor binding affinity for the tyramine receptor as well as an ability to effect change in cAMP and/or Ca^2+ levels within the cell.

The target of experiment [2] is T1, Tyramine receptor (TyrR). Briefly: Intracellular cAMP level in cells expressing TyrR. It is filed as cell-based.
Description: as §1, §2

Experiment [3] has as its target T1, Tyramine receptor (TyrR). Description: Intracellular Ca2+ level in cells expressing TyrR. The experiment is classed as cell-based.
For experiment [4], the system named is H. nana. Description: Anti-parasitic effect against H. nana in vivo in infected Swiss albino mice (egg count, cure rate).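 On all read-outs here: fecal egg counts per mouse in groups of 15, controls got soybean oil vehicle alone, cure judged 3 days after final dose by egg reduction and no adult intestinal worms.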 Particulars: for Egg Count (X ± SD), Pre Treatment (Base Line Data): infected mice, before 400 mg/kg oral daily for 5 days. Also noted: species or system Hymenolepsis nana.
Setting [5] is: 400 mg/kg oral daily for 5 days.
Setting [6] is: 3 Days after last dose, 400 mg/kg oral daily for 5 days.
[7] abbreviates: 100 mg/kg oral daily for 5 days.
Where [8] appears, read: Tested dose 100 mg/kg b.w. orally daily for 5 successive days.

`C=CCc1ccc(O)c(OC)c1` [Eugenol]: the “Tyramine Receptor Binding Affinity (High or Low)” value in experiment [1] is “Low”. Also, the “Affects Intracellular cAMP (Yes or No)” value in experiment [2] was “No”. Moreover, in experiment [3], the “Affects Intracellular Ca^2+ (Yes or No)” value is “Yes”.
With `Cc1ccc(C(C)C)cc1O` [Rx4, carvacrol], in experiment [4] (setting [5]), the “Egg Count (X ± SD), During Treatment 1st Day” value turned out to be 5 ± 0.6; the “Egg Count (X ± SD), During Treatment 2nd Day” value came out at 2.2 ± 3.4; the “Egg Count (X ± SD), During Treatment 3rd Day” value amounted to 1 ± 1.9; the “Egg Count (X ± SD), During Treatment 4th Day” value worked out at 0.9 ± 1.2. In experiment [4] (setting [5]), the “Egg Count (X ± SD), During Treatment 5th Day” value was 2 ± 2 and the “Egg Count (X ± SD), Post treatment 2 Days after last dose” value (“Egg Count (X ± SD) … after last dose” for short) was 1.3 ± 1.1. In experiment [4] (setting [6]), the “Cure rate (%)” value was 28.6% and the “Positiveity rate (%)” value was 71.4%. The “Egg Count (X ± SD), Pre Treatment (Base Line Data)” value (shortened to “Egg Count (X ± SD), Pre Treatment”) in experiment [4] is 3 ± 1.
With `CC(C)=CCC/C(C)=C/CO` [Rx5, geraniol], in experiment [4] (setting [5]), the “Egg Count (X ± SD), During Treatment 1st Day” value is 14 ± 13.9; the “Egg Count (X ± SD), During Treatment 2nd Day” value is reported as 1.4 ± 2.1; the “Egg Count (X ± SD), During Treatment 3rd Day” value is given as 4.1 ± 9.6; the “Egg Count (X ± SD), During Treatment 4th Day” value is 2.6 ± 7.4. Moreover, in experiment [4] (setting [5]), the “Egg Count (X ± SD), During Treatment 5th Day” value came out at 2.3 ± 3.6 and the “Egg Count (X ± SD) … after last dose” value was determined as 0.5 ± 0.9. Besides, in experiment [4] (setting [6]), the “Cure rate (%)” value came out at 66.6% and the “Positiveity rate (%)” value was determined as 33.4%. In addition, the cure rate in experiment [4] (H. nana infected mice, 400 mg/kg body weight orally daily for 5 successive days, 3rd day after last dose) came to 66.6%. For the same molecule, in experiment [4], the “Egg Count (X ± SD), Pre Treatment” value was 3 ± 1. The “Worms absent or dead in mice” value in experiment [4] (treated for 5 consecutive days, 400 mg/kg, post treatment dissection) is 67%.
For the molecule `CC12CCC(CC1)C(C)(C)O2` [Rx6, cineol], in experiment [4] (setting [5]), the “Egg Count (X ± SD), During Treatment 1st Day” value stood at 5 ± 9.5; the “Egg Count (X ± SD), During Treatment 2nd Day” value is 3.8 ± 14.3; the “Egg Count (X ± SD), During Treatment 3rd Day” value turned out to be 1 ± 1.2; the “Egg Count (X ± SD), During Treatment 4th Day” value was 1.8 ± 1.7. Moreover, in experiment [4] (setting [5]), the “Egg Count (X ± SD), During Treatment 5th Day” value is 1.6 ± 1.5 and the “Egg Count (X ± SD) … after last dose” value is given as 2.5 ± 3.5. In addition, in experiment [4] (setting [6]), the “Cure rate (%)” value was 54.5% and the “Positiveity rate (%)” value was 45.5%. The “Egg Count (X ± SD), Pre Treatment” value in experiment [4] was 3.1 ± 1.2.
As for `Cc1ccc(C(C)C)cc1` [Rx10, p-cymene], in experiment [1], the “Tyramine Receptor Binding Affinity (High or Low)” value is reported as “Low”. Besides, in experiment [1], the “tyramine receptor binding affinity” value is listed as “low (a low receptor binding affinity is found when the equilibrium dissociation constant (Kd) is greater than about 100 nM)”. Moreover, the “Cure rate (%)” value in experiment [4] (setting [7]) and in experiment [4] (setting [8]) was 13.3% in each case. Further, in experiment [2], the “Affects Intracellular cAMP (Yes or No)” value is reported as “Yes”. Also, in experiment [3], the “Affects Intracellular Ca^2+ (Yes or No)” value was “Yes”.
For the molecule `Cc1ccc(C(C)C)c(O)c1` [Rx11, thymol], in experiment [1], the “Tyramine Receptor Binding Affinity (High or Low)” value is reported as “High”. Further, the “Cure rate (%)” value in experiment [4] (setting [7]) and in experiment [4] (setting [8]) was 33.3% throughout. In addition, the “Affects Intracellular cAMP (Yes or No)” value in experiment [2] is reported as “No”. Further, the “Affects Intracellular Ca^2+ (Yes or No)” value in experiment [3] was “Yes”.
With `C/C=C/c1ccc(OC)cc1` [anethole], the “Tyramine Receptor Binding Affinity (High or Low)” value in experiment [1] was “Low”. The “Affects Intracellular cAMP (Yes or No)” value in experiment [2] is “Yes”. In addition, the “Affects Intracellular Ca^2+ (Yes or No)” value in experiment [3] is listed as “Yes”.
Consider `OCc1ccccc1` [benzyl alcohol], for which the “Tyramine Receptor Binding Affinity (High or Low)” value in experiment [1] is given as “Low”. For the same molecule, the “Affects Intracellular cAMP (Yes or No)” value in experiment [2] was “Yes”. Besides, in experiment [3], the “Affects Intracellular Ca^2+ (Yes or No)” value is reported as “No”.
In the case of `CC12CCC(CC1)C(C)(C)O2` [cineol], in experiment [1], the “Tyramine Receptor Binding Affinity (High or Low)” value is reported as “Low”. Besides, in experiment [2], the “Affects Intracellular cAMP (Yes or No)” value is on record as “Yes”. Besides, in experiment [3], the “Affects Intracellular Ca^2+ (Yes or No)” value is reported as “Yes”.
Regarding `OCC=Cc1ccccc1` [cinnamyl alcohol], the “Tyramine Receptor Binding Affinity (High or Low)” value in experiment [1] is “Low”. In experiment [2], the “Affects Intracellular cAMP (Yes or No)” value is “No”. In addition, the “Affects Intracellular Ca^2+ (Yes or No)” value in experiment [3] is listed as “Yes”.
Take `C=C(C)[C@H]1CC=C(C)CC1` [d-limonene]: the “Affects Intracellular Ca^2+ (Yes or No)” value in experiment [3] is on record as “Yes”.
For `CC(C)=CCC/C(C)=C/CO` [geraniol], the “Tyramine Receptor Binding Affinity (High or Low)” value in experiment [1] was “High”. The “Affects Intracellular cAMP (Yes or No)” value in experiment [2] is on record as “Yes”. Besides, the “Affects Intracellular Ca^2+ (Yes or No)” value in experiment [3] is on record as “Yes”.
In the case of `C=CC(C)(O)CCC=C(C)C` (stereo not shown) [linalool], the “Tyramine Receptor Binding Affinity (High or Low)” value in experiment [1] is recorded as “High”. Moreover, the “Cure rate (%)” value in experiment [4] (setting [7]) and in experiment [4] (setting [8]) was 23.3% in each case. Also, the “Affects Intracellular cAMP (Yes or No)” value in experiment [2] is on record as “No”. The “Affects Intracellular Ca^2+ (Yes or No)” value in experiment [3] was “Yes”.
As to `CCC(=O)OCCc1ccccc1` [phenethyl proprionate], in experiment [1], the “Tyramine Receptor Binding Affinity (High or Low)” value was “Low”. For the same molecule, in experiment [2], the “Affects Intracellular cAMP (Yes or No)” value is on record as “Yes”. Further, the “Affects Intracellular Ca^2+ (Yes or No)” value in experiment [3] is given as “No”.
The matching figures for `CCCCCCCCCCCCOS(=O)(=O)[O-].[Na+]` [sodium lauryl sulfate]: “Low”, “No” and “No”.
For `CCC(C)(O)CCCC(C)C` (stereo not shown) [tetrahydrolinalool], in experiment [1], the “Tyramine Receptor Binding Affinity (High or Low)” value is given as “High”. For the same molecule, in experiment [2], the “Affects Intracellular cAMP (Yes or No)” value is given as “Yes”. Further, the “Affects Intracellular Ca^2+ (Yes or No)” value in experiment [3] is on record as “Yes”.
As for `COc1cc(C=O)ccc1O` [vanillin], in experiment [2], the “Affects Intracellular cAMP (Yes or No)” value is listed as “No”.
Take `CC1=CCC2CC1C2(C)C` (stereo not drawn) [α-pinene]: the “Tyramine Receptor Binding Affinity (High or Low)” value in experiment [1] is given as “Low”. For the same molecule, the “Cure rate (%)” value in experiment [4] (setting [7]) and in experiment [4] (setting [8]) was 25.0% in each case. Besides, the “Affects Intracellular cAMP (Yes or No)” value in experiment [2] was “No”. Besides, the “Affects Intracellular Ca^2+ (Yes or No)” value in experiment [3] is reported as “No”.
